Experimental findings from US9775857B2, “Lignans isolated from Lasia spinosa (L.) Thwait” (Hong Kong Baptist University, priority 2015, dated 2017) are described below.

SMILES strings stand for the structures. Converted amounts (≈) assume the structure as drawn. “Also recorded” adds a separate entry of the source. Where only a bound is given, the exact number is not on record here.

One series relates to KYSE-70. Description: Cytotoxicity assay (MTT), KYSE-70. Format: cell-based. The settings on record: 48 h, 1.56-50 μg/mL tested; for Cytotoxicity against KYSE-70, IC50: human esophageal carcinoma cells; for IC50: KYSE-70, human esophageal carcinoma cells, read-out: Cytotoxicity against KYSE-70, IC50. The procedure:
(§1) Test compounds were dissolved in dimethyl sulfoxide (DMSO) to make stock solutions and further diluted in culture medium. Human esophageal carcinoma cell lines (KYSE-70, KYSE-150, KYSE-450 and KYSE-520) were cultured in RPMI 1640 or DMEM medium containing 10% fetal bovine serum and 1% antibiotics (Penicillin and strep). 3×10^3 cells/well were seeded in a 96-well plate and allowed to attach to the plate overnight. After the recovery, cells were treated with 1.56, 3.125, 6.25, 12.5, 25, 50 μg/mL of compounds in culture medium for 48 h. Then, 20 μL of MTT (5 mg/mL stock in PBS) per well was added into the medium (200 μL) and incubated for 4 h at 37° C. Finally, the culture medium was removed and 200 μL of DMSO were added. Absorbance of the solution was measured using microplate reader spectrophotometer (Bio-Rad Laboratories, Inc., Hercules, Calif.) at a wavelength of 570 nm.

The subject of the next series is KYSE-150. Description: Cytotoxicity assay (MTT), KYSE-150. Format: cell-based. The settings on record: human esophageal carcinoma cells, 1.56-50 μg/mL tested; for Cytotoxicity against KYSE-150, IC50: 48 h; for IC50: Homo sapiens, KYSE-150, 48 h, read-out: Cytotoxicity against KYSE-150, IC50. How it is done:
as §1

The next series has as its system KYSE-450. In words: Cytotoxicity assay (MTT), KYSE-450. The format is cell-based. As to conditions: 48 h, 1.56-50 μg/mL tested; for Cytotoxicity against KYSE-450, IC50: human esophageal carcinoma cells; for IC50: KYSE-450, human esophageal carcinoma cells, read-out: Cytotoxicity against KYSE-450, IC50. The procedure: as §1
For a further series, the system named is KYSE-520. In words: Cytotoxicity assay (MTT), KYSE-520. The settings on record: human esophageal carcinoma cells, 1.56-50 μg/mL tested; for IC50: Homo sapiens, KYSE-520, 48 h, read-out: Cytotoxicity against KYSE-520, IC50. The format is cell-based. The procedure: as §1
For another series, the system named is KYSE-150 cells. In words: Tumor xenograft mouse model. The format is in vivo, nude female mice. The settings on record: KYSE-150 xenograft. The procedure: The tumor xenograft mice were treated with a vehicle or compound 9 at 15 or 30 mg/kg once a day […] for 12 days. Tumor size was measured every two days and body weight was measured every day. On day 13, the mice were sacrificed, and tumor weight was measured (n=5, *p<0.05, **p<0.01, ***p<0.001, ****p<0.0001).
Six to eight weeks old nude female mice weighing about 16-20 g were purchased from the Laboratory Animal Services Center, the Chinese University of Hong Kong, and 2×10^6 KYSE-150 cells in […] saline were injected subcutaneously into the flanks of the mice. When the tumor volume reached about 100 mm^3, the mice were randomly divided into three groups (n=5). The control group was administered with saline, while compound 9 treatment groups were given different doses of 9 (15 or 30 mg/kg, respectively) by intraperitoneal injection. Tumor volume were measured by vernier caliper every two days for 12 days, and calculated according to the formula: Volume=(width)^2×length/2. At the end of observation, mice were killed to remove the tumors. Then the samples were fixed in 4% paraformaldehyde and embedded in paraffin. Five-micro-meter sections were stained with hematoxylin/eosin according to a standard procedure. Animal protocol was approved by the committee for Care of Laboratory Animals in the School of Chinese Medicine at the Hong Kong Baptist University.

[1] abbreviates: 15 or 30 mg/kg once a day for 12 days.

`COc1cc(C[C@@H](CO)[C@H](CO)Cc2cc(OC)c(O)c(OC)c2)cc(OC)c1O` [Compound 2, 5,5′-Dimethoxysecoiso-lariciresinol]: the “Cytotoxicity against KYSE-70, IC50” value in the series with KYSE-70 is recorded as 47.22 μg/mL; in the series with KYSE-70 (listed as compound 2), roughly 50 μg/mL. The figures for the “Cytotoxicity against KYSE-150, IC50” value in the series with KYSE-150 and with KYSE-150 (listed as compound 2) were 49.63 μg/mL and roughly 50 μg/mL, respectively. Moreover, the “Cytotoxicity against KYSE-450, IC50” value was 39.21 μg/mL with KYSE-450 and roughly 50 μg/mL in the series on KYSE-450 (listed as compound 2).

On to `COc1cc([C@H]2Oc3c(OC)cc(CCCO)cc3[C@@H]2CO)ccc1O` [Compound 8, Dihydrodehydrodiconifery Alcohol], for which the concentration for half-maximal inhibition (IC50) in the series with KYSE-70 was greater than 50 µg/mL; in the series with KYSE-150, roughly 30 µg/mL (≈ 83.2 µM); in the series on KYSE-520, roughly 30 µg/mL (≈ 83.2 µM); in the series on KYSE-450 it was greater than 50 µg/mL. The “Cytotoxicity against KYSE-150, IC50” value in the series on KYSE-150 was found to be 31.86 μg/mL. For the same compound, the “Cytotoxicity against KYSE-520, IC50” value in the series on KYSE-520 (48 h) was 37.34 μg/mL.

For `COc1cc(CC(C)C(O)(CO)Cc2cc(OC)c(O)c(OC)c2)ccc1O` (stereo not shown) [Compound 3, 2-(4-Hydroxy-3,5-dimethoxybenzyl)-3-(4-hydroxy-3-methoxybenzyl)-1,2-butanediol], the concentration for half-maximal inhibition (IC50) in the series on KYSE-70 was greater than 50 µg/mL; in the series with KYSE-150 it was 34.5 µg/mL (≈ 87.9 µM); with KYSE-520, greater than 50 µg/mL; in the series with KYSE-450 it was greater than 50 µg/mL.

With `COc1cc([C@H]2OC[C@H]3[C@@H]2CO[C@@H]3c2cc(OC)c(O)c(OC)c2)cc(OC)c1O` [Compound 9, Syringaresinol], the body weight entry in the series with KYSE-150 cells (setting [1]) is reported as “suppresses the body weight; also recorded: less body weight loss”. Moreover, in the series on KYSE-150 cells (setting [1]), the toxic death result is listed as “no toxic death”. In addition, the weight of tumor result in the series with KYSE-150 cells (15 or 30 mg/kg once a day for 12 days, day 13) is on record as “suppresses the weight of tumor”. In addition, the “tumor growth / size of tumor” value in the series with KYSE-150 cells (15 or 30 mg/kg once a day for 12 days, vs control) was “suppresses the size of tumor; also recorded: significant tumor growth delay”. Moreover, the “H&E staining of the tumor tissue (histological manifestation)” value with KYSE-150 cells (15 or 30 mg/kg, vs control (orderly and tightly)) is “obviously loose and messy”. For the same compound, the IC50 in the series with KYSE-70, in the series on KYSE-150, in the series with KYSE-520 and in the series with KYSE-450 was greater than 50 µg/mL each time.

For orientation: IC50 means the concentration that gives 50% inhibition.
